Assay: xn = mol fraction of the nth substance listed
Conditions: Liquid, Vibrating tube method

CCCCCCCCCC [decane] + CCCCCCC
Conditions	mass density [kg/m3]
313.18 K, 10000 kPa, x2 = 0.5219	703.05
313.18 K, 10000 kPa, x2 = 0.777	690.24
313.18 K, 10990 kPa, x2 = 0.5219	703.9
313.18 K, 10990 kPa, x2 = 0.777	691.12
313.18 K, 12000 kPa, x2 = 0.5219	704.76
313.18 K, 12000 kPa, x2 = 0.777	692.05
313.18 K, 13000 kPa, x2 = 0.5219	705.6
313.18 K, 13000 kPa, x2 = 0.777	692.92
313.18 K, 14000 kPa, x2 = 0.5219	706.44
313.18 K, 14000 kPa, x2 = 0.777	693.78
313.18 K, 15000 kPa, x2 = 0.5219	707.25
313.18 K, 15000 kPa, x2 = 0.777	694.64
313.18 K, 16000 kPa, x2 = 0.5219	708.05
313.18 K, 16000 kPa, x2 = 0.777	695.5
313.18 K, 17000 kPa, x2 = 0.5219	708.84
313.18 K, 17000 kPa, x2 = 0.777	696.33
313.18 K, 18000 kPa, x2 = 0.5219	709.64
313.18 K, 18000 kPa, x2 = 0.777	697.16
313.18 K, 19000 kPa, x2 = 0.5219	710.37
313.18 K, 19000 kPa, x2 = 0.777	697.97
313.18 K, 20000 kPa, x2 = 0.5219	711.12
313.18 K, 20000 kPa, x2 = 0.777	698.77
313.18 K, 21000 kPa, x2 = 0.5219	711.85
313.18 K, 21000 kPa, x2 = 0.777	699.55
313.18 K, 22000 kPa, x2 = 0.5219	712.53
313.18 K, 22000 kPa, x2 = 0.777	700.31
313.18 K, 23000 kPa, x2 = 0.5219	713.24
313.18 K, 23000 kPa, x2 = 0.777	701
313.18 K, 24000 kPa, x2 = 0.5219	713.92
313.18 K, 24000 kPa, x2 = 0.777	701.71
313.18 K, 25000 kPa, x2 = 0.5219	714.55
313.18 K, 25000 kPa, x2 = 0.777	702.37
323.14 K, 1000 kPa, x2 = 0.5219	687.21
323.14 K, 1000 kPa, x2 = 0.952	662.62
323.14 K, 2000 kPa, x2 = 0.5219	688.12
323.14 K, 2000 kPa, x2 = 0.952	663.72
323.14 K, 3000 kPa, x2 = 0.5219	689.02
323.14 K, 3000 kPa, x2 = 0.952	664.82
323.14 K, 4000 kPa, x2 = 0.5219	689.95
323.14 K, 4000 kPa, x2 = 0.952	665.9
323.14 K, 5000 kPa, x2 = 0.5219	690.88
323.14 K, 5000 kPa, x2 = 0.952	666.98
323.14 K, 6000 kPa, x2 = 0.5219	691.82
323.14 K, 6000 kPa, x2 = 0.952	668.05
323.14 K, 7000 kPa, x2 = 0.5219	692.78
323.14 K, 7000 kPa, x2 = 0.952	669.1
323.14 K, 8000 kPa, x2 = 0.5219	693.71
323.14 K, 8000 kPa, x2 = 0.952	670.14
323.14 K, 9000 kPa, x2 = 0.5219	694.65
323.14 K, 9000 kPa, x2 = 0.952	671.16
323.14 K, 10000 kPa, x2 = 0.5219	695.58
323.14 K, 10000 kPa, x2 = 0.952	672.17
323.14 K, 10990 kPa, x2 = 0.5219	696.5
323.14 K, 10990 kPa, x2 = 0.952	673.16
323.14 K, 12000 kPa, x2 = 0.5219	697.4
323.14 K, 12000 kPa, x2 = 0.952	674.14
323.14 K, 13000 kPa, x2 = 0.5219	698.29
323.14 K, 13000 kPa, x2 = 0.952	675.1
323.14 K, 14000 kPa, x2 = 0.5219	699.17
323.14 K, 14000 kPa, x2 = 0.952	676.05
323.14 K, 15000 kPa, x2 = 0.5219	700.04
323.14 K, 15000 kPa, x2 = 0.952	676.99
323.14 K, 16000 kPa, x2 = 0.5219	700.9
323.14 K, 16000 kPa, x2 = 0.952	677.91
323.14 K, 17000 kPa, x2 = 0.5219	701.74
323.14 K, 17000 kPa, x2 = 0.952	678.82
323.14 K, 18000 kPa, x2 = 0.5219	702.6
323.14 K, 18000 kPa, x2 = 0.952	679.71
323.14 K, 19000 kPa, x2 = 0.5219	703.38
323.14 K, 19000 kPa, x2 = 0.952	680.59
323.14 K, 20000 kPa, x2 = 0.5219	704.18
323.14 K, 20000 kPa, x2 = 0.952	681.45
323.14 K, 21000 kPa, x2 = 0.5219	704.97
323.14 K, 21000 kPa, x2 = 0.952	682.3
323.14 K, 22000 kPa, x2 = 0.5219	705.7
323.14 K, 22000 kPa, x2 = 0.952	683.13
323.14 K, 23000 kPa, x2 = 0.5219	706.43
323.14 K, 23000 kPa, x2 = 0.952	683.92
323.14 K, 24000 kPa, x2 = 0.5219	707.14
323.14 K, 24000 kPa, x2 = 0.952	684.73
323.14 K, 25000 kPa, x2 = 0.5219	707.83
323.14 K, 25000 kPa, x2 = 0.952	685.51
323.15 K, 1000 kPa, x2 = 0.0531	705.96
323.15 K, 1000 kPa, x2 = 0.2594	698.56
323.15 K, 2000 kPa, x2 = 0.0531	706.92
323.15 K, 2000 kPa, x2 = 0.2594	699.45
323.15 K, 3000 kPa, x2 = 0.0531	707.86
323.15 K, 3000 kPa, x2 = 0.2594	700.3
323.15 K, 4000 kPa, x2 = 0.0531	708.79
323.15 K, 4000 kPa, x2 = 0.2594	701.18
323.15 K, 5000 kPa, x2 = 0.0531	709.69
323.15 K, 5000 kPa, x2 = 0.2594	702.06
323.15 K, 6000 kPa, x2 = 0.0531	710.58
323.15 K, 6000 kPa, x2 = 0.2594	702.96
